Laboratory results from US20250064941A1, “SIGLEC LIGANDS, CONJUGATES, AND METHODS OF USE THEREOF” (Osprey Biopharmaceuticals, Inc., priority 2023, published 2025).

Legend:
cynomolgus Siglec-2/CD22 = cynomolgus Siglec-2/CD22 (Macaca fascicularis, UniProt A0A2K5WCZ6); experiment: biochemical; assay type: binding; settings: SPR, steady-state analysis; read-out: Affinity cyno CD22
Summary of the method: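 SPR with desialylated (SialoExo, 4 h, 37° C.) cynomolgus CD22 amine-coupled to a CM5 chip. Running buffer 10 mM HEPES, 150 mM NaCl, 0.05% Tween-20, pH 7.5, 1% DMSO, with solvent correction; 120 s dissociation. Affinities from steady-state analysis.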

[1] = target: T1, mouse Siglec-2-Fc-Avi (CD22) (Mus musculus, UniProt P35329); experiment: SPR binding affinity to mouse CD22; settings: steady-state analysis
T1 construct: made in house
T1 sequence (P35329 22-708 limits assumed): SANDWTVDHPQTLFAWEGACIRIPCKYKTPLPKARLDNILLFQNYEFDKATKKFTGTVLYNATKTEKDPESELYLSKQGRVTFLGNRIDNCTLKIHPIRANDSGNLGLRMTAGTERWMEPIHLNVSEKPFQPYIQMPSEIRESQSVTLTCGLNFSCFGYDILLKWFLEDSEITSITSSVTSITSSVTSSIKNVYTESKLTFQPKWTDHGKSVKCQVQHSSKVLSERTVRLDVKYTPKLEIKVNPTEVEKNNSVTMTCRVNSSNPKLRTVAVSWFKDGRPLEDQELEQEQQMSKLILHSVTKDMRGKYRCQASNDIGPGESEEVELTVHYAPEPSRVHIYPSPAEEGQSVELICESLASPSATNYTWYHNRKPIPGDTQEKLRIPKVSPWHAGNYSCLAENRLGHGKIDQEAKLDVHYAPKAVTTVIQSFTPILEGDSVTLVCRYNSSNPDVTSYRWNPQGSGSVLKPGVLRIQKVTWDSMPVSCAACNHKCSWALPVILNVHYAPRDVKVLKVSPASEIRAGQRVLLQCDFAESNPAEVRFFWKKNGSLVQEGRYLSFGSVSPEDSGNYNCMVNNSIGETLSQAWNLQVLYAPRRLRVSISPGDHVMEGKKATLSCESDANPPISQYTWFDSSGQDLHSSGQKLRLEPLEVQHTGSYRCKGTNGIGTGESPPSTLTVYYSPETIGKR
Summary of the method: (§1)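 Steady-state fits gave the affinities. Before capture on a streptavidin surface, biotinylated CD22 had native sialic acids stripped (SialoExo, 4 hours, 37° C.). Running buffer: 10 mM HEPES pH 7.5, 150 mM NaCl, 0.05% Tween-20, 1% DMSO, with DMSO solvent correction.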

[2] = target: T2, human Siglec-2/CD22 protein (Homo sapiens, UniProt P20273); experiment: SPR binding affinity to human CD22; settings: steady-state analysis
T2 construct: purchased Acro Biosystems SI2-H82E3
T2 sequence (P20273 20-847): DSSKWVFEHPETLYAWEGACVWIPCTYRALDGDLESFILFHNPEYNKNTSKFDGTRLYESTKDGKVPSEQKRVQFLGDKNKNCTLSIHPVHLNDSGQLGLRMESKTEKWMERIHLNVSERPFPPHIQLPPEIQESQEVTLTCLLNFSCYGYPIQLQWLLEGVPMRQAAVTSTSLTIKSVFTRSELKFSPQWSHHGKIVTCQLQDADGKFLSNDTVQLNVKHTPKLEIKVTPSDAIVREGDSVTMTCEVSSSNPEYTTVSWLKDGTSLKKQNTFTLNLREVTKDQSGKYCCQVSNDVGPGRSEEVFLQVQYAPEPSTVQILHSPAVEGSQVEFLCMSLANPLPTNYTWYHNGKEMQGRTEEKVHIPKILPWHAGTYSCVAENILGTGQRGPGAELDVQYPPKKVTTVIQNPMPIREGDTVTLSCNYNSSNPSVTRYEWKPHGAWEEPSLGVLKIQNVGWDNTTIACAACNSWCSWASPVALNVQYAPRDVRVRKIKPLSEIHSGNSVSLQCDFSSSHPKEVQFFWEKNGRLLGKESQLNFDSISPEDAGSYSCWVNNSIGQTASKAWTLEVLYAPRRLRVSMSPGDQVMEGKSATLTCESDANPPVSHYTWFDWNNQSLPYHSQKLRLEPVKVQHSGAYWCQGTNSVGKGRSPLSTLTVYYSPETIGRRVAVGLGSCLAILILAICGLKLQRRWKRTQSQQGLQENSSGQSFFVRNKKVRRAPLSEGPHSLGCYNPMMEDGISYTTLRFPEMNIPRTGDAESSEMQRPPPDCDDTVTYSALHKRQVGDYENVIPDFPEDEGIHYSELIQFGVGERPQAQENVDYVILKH
Summary of the method: as §1

Chain of cynomolgus Siglec-2/CD22 (A0A2K5WCZ6 entry or part of it): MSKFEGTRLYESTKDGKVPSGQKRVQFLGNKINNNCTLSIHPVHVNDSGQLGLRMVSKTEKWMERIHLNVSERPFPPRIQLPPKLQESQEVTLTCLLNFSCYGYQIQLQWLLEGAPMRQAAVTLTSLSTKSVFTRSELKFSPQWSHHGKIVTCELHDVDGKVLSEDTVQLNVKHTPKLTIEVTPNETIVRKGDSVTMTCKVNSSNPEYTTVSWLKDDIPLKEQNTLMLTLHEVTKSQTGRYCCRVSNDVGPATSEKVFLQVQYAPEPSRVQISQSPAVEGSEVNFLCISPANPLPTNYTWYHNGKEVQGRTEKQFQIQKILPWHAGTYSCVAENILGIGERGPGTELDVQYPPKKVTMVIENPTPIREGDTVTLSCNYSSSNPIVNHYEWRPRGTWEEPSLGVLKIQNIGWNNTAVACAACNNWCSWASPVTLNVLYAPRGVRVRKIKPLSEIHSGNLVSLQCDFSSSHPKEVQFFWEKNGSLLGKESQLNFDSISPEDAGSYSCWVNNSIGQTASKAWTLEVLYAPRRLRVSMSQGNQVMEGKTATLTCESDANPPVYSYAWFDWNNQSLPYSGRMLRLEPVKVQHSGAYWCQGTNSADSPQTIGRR

Structure (SMILES)	Kd (cynomolgus Siglec-2/CD22) [nM]	Kd [1] [nM]	Kd [2] [nM]
O=C(O)CCCCCO[C@]1(C(=O)O)C[C@H](O)[C@@H](NC(=O)CO)[C@H]([C@H](O)[C@H](O)CNC(=O)Cc2ccc(Cl)cc2)O1 [Compound 121, (2R,4S,5R,6R)-2-((5-carboxypentyl)oxy)-6-((1R,2R)-3-(2-(4-chlorophenyl)acetamido)-1,2-dihydroxypropyl)-4-hydroxy-5-(2-hydroxyacetamido)tetrahydro-2H-pyran-2-carboxylic acid]	< 1000	1000 to 10000	< 1000
C#CCOCCCCCCO[C@]1(C(=O)O)C[C@H](O)[C@@H](NC(=O)CNC)[C@H]([C@H](O)[C@H](O)CNC(=O)Cc2ccc(Cl)cc2)O1 [Compound 211]	< 1000	< 1000	< 1000
C#CCCOCCOCCO[C@]1(C(=O)O)C[C@H](O)[C@@H](NC(=O)CO)[C@H]([C@H](O)[C@H](O)CNC(=O)Cc2ccc(-c3ccc(O)cc3)cc2)O1 [Compound 83, (2R,4S,5R,6R)-2-(2-(2-(but-3-yn-1-yloxy)ethoxy)ethoxy)-6-((1R,2R)-1,2-dihydroxy-3-(2-(4′-hydroxy-[1,1′-biphenyl]-4-yl)acetamido)propyl)-4-hydroxy-5-(2-hydroxyacetamido)tetrahydro-2H-pyran-2-carboxylic acid]	1000 to 10000	1000 to 10000	< 1000
C#CCCOc1ccc(CO[C@]2(C(=O)O)C[C@H](O)[C@@H](NC(=O)NC)[C@H]([C@H](O)[C@H](O)CNC(=O)Cc3ccc(-c4ccc(O)cc4)cc3)O2)cc1 [Compound 61, (2R,4S,5R,6R)-2-((4-(but-3-yn-1-yloxy)benzyl)oxy)-6-((1R,2R)-1,2-dihydroxy-3-(2-(4′-hydroxy-[1,1′-biphenyl]-4-yl)acetamido)propyl)-4-hydroxy-5-(3-methylureido)tetrahydro-2H-pyran-2-carboxylic acid]	< 1000	< 1000	< 1000
C#CCOCCOCCO[C@]1(C(=O)O)C[C@H](O)[C@@H](NC(=O)CO)[C@H]([C@H](O)[C@H](O)CNC(=O)Cc2ccc(O)cc2)O1 [Compound 153, (2R,4S,5R,6R)-6-((1R,2R)-1,2-dihydroxy-3-(2-(4-hydroxyphenyl)acetamido)propyl)-4-hydroxy-5-(2-hydroxyacetamido)-2-(2-(2-(prop-2-yn-1-yloxy)ethoxy)ethoxy)tetrahydro-2H-pyran-2-carboxylic acid]	1000 to 10000	< 1000	1000 to 10000
C#CCOCCOCCO[C@]1(C(=O)O)C[C@H](O)[C@@H](NC(=O)CO)[C@H]([C@H](O)[C@H](O)CNC(=O)Cc2ccc(F)c(C(F)(F)F)c2)O1 [Compound 132, (2R,4S,5R,6R)-6-((1R,2R)-3-(2-(4-fluoro-3-(trifluoromethyl)phenyl)acetamido)-1,2-dihydroxypropyl)-4-hydroxy-5-(2-hydroxyacetamido)-2-(2-(2-(prop-2-yn-1-yloxy)ethoxy)ethoxy)tetrahydro-2H-pyran-2-carboxylic acid]	< 1000	> 10000	1000 to 10000
C#CCOCCOCCO[C@]1(C(=O)O)C[C@H](O)[C@@H](NC(=O)CO)[C@H]([C@H](O)[C@H](O)CNC(=O)Cc2ccc(-c3ccccc3)cc2O)O1 [Compound 67, (2R,4S,5R,6R)-6-((1R,2R)-1,2-dihydroxy-3-(2-(3-hydroxy-[1,1′-biphenyl]-4-yl)acetamido)propyl)-4-hydroxy-5-(2-hydroxyacetamido)-2-(2-(2-(prop-2-yn-1-yloxy)ethoxy)ethoxy)tetrahydro-2H-pyran-2-carboxylic acid]	1000 to 10000	1000 to 10000	1000 to 10000
C#CCOCCOCCO[C@]1(C(=O)O)C[C@H](O)[C@@H](NC(=O)CO)[C@H]([C@H](O)[C@H](O)CNC(=O)Cc2ccc(-c3ccc(=O)[nH]c3)cc2)O1 [Compound 74, (2R,4S,5R,6R)-6-((1R,2R)-1,2-dihydroxy-3-(2-(4-(6-oxo-1,6-dihydropyridin-3-yl)phenyl)acetamido)propyl)-4-hydroxy-5-(2-hydroxyacetamido)-2-(2-(2-(prop-2-yn-1-yloxy)ethoxy)ethoxy)tetrahydro-2H-pyran-2-carboxylic acid]	1000 to 10000	1000 to 10000	1000 to 10000
C#CCOCCOCCO[C@]1(C(=O)O)C[C@H](O)[C@@H](NC(=O)CO)[C@H]([C@H](O)[C@H](O)CNC(=O)c2cccc(O)c2)O1 [Compound 29, (2R,4S,5R,6R)-6-((1R,2R)-1,2-dihydroxy-3-(3-hydroxybenzamido)propyl)-4-hydroxy-5-(2-hydroxyacetamido)-2-(2-(2-(prop-2-yn-1-yloxy)ethoxy)ethoxy)tetrahydro-2H-pyran-2-carboxylic acid]	> 10000	> 10000	1000 to 10000
CC(=O)NCCOCCOCCOCCOCCC(=O)NCCCCCCO[C@]1(C(=O)O)C[C@H](O)[C@@H](NC(=O)CO)[C@H]([C@H](O)[C@H](O)CNC(=O)Cc2ccc(C(F)F)cc2)O1 [Cpd. 256, (2R,4S,5R,6R)-6-((1R,2R)-3-(2-(4-(difluoromethyl)phenyl)acetamido)-1,2-dihydroxypropyl)-2-((2,18-dioxo-6,9,12,15-tetraoxa-3,19-diazapentacosan-25-yl)oxy)-4-hydroxy-5-(2-hydroxyacetamido) tetrahydro-2H-pyran-2-carboxylic acid]	< 1000	1000 to 10000	< 1000
C#CCOCCOCCO[C@@]1(C(=O)O)O[C@@H]([C@H](O)[C@H](O)CNC(=O)Cc2ccc(-c3ccccc3)cc2)[C@H](NC(=O)CO)[C@@H](NC(=O)CC)[C@@H]1O [Compound 178, (2R,3S,4R,5R,6R)-6-((1R,2R)-3-(2-([1,1′-biphenyl]-4-yl)acetamido)-1,2-dihydroxypropyl)-3-hydroxy-5-(2-hydroxyacetamido)-2-(2-(2-(prop-2-yn-1-yloxy)ethoxy)ethoxy)-4-propionamidotetrahydro-2H-pyran-2-carboxylic acid]	1000 to 10000	> 10000	1000 to 10000
C#CCOCCCCCCO[C@]1(C(=O)O)C[C@H](O)[C@@H](NC(=O)CO)[C@H]([C@H](O)[C@H](O)CNC(=O)Cc2ccc(Cl)c(C(F)(F)F)c2)O1 [Compound 127, (2R,4S,5R,6R)-6-((1R,2R)-3-(2-(4-chloro-3-(trifluoromethyl)phenyl)acetamido)-1,2-dihydroxypropyl)-4-hydroxy-5-(2-hydroxyacetamido)-2-((6-(prop-2-yn-1-yloxy)hexyl)oxy)tetrahydro-2H-pyran-2-carboxylic acid]	< 1000	1000 to 10000	< 1000
C#CCOCCOCCO[C@]1(C(=O)O)C[C@H](O)[C@@H](NC(=O)CO)[C@H]([C@H](O)[C@H](O)CNC(=O)c2cccc(Oc3ccc(O)cc3)c2)O1 [Compound 18, (2R,4S,5R,6R)-6-((1R,2R)-1,2-dihydroxy-3-(3-(4-hydroxyphenoxy)benzamido)propyl)-4-hydroxy-5-(2-hydroxyacetamido)-2-(2-(2-(prop-2-yn-1-yloxy)ethoxy)ethoxy)tetrahydro-2H-pyran-2-carboxylic acid]	1000 to 10000	1000 to 10000	< 1000
